Measurements published in US20260015574A1, “METHODS FOR SHORTENING LAG PHASE DURATION IN MICROORGANISMS” (YEDA RESEARCH AND DEVELOPMENT CO. LTD., priority 2022, published 2026).

Assays:
Various marine bacteria = experiment: Lag phase shortening in various marine bacteria; assay type: cell-based; conditions: minute amounts of compound
Experimental: The bacterial strain Phaeobacter inhibens DSM 17395 was purchased from the German collection of microorganisms and cell cultures (DSMZ, Braunschweig, Germany) and stored at −80° C. with 20% glycerol. Routine cultivation of P. inhibens was conducted at 30° C. in artificial seawater medium (ASW) based on Goyet and Poisson (1989). The ASW medium contained mineral salts (NaCl, 409.41 mM; Na2SO4, 28.22 mM; KCl, 9.08 mM; KBr, 0.82 mM; NaF, 0.07 mM; Na2CO3, 0.20 mM; NaHCO3, 2 mM; MgCl2, 50.66 mM; SrCl2, 0.09 mM), L1 vitamins (thiamine HCl, 100 μg/L; biotin, 0.5 μg/L; vitamin B12, […]), L1 trace elements (Na2EDTA·2H2O, 4.36 mg/L; FeCl3·6H2O, 3.15 mg/L; MnCl2·4H2O, 178.1 μg/L; ZnSO4·7H2O, 23.0 μg/L; CoCl2·6H2O, 11.9 μg/L; CuSO4·5H2O, 2.5 μg/L; Na2MoO4·2H2O, 19.9 μg/L; H2SeO3, 1.29 μg/L; NiSO4·6H2O, 2.63 μg/L; Na3 VO4, 1.84 μg/L; K2CrO4, 1.94 μg/L), and L1 nutrients (NaNO3, 882 μM; NaH2PO4, 36.22 μM). ASW was adjusted to pH 8 using HCl. […] A 96-well Tecan Infinite M Plex plate reader was used for high-resolution monitoring of bacterial growth dynamics at 30° C. […] The growth of bacteria in co-culture with algae was monitored by counting colony forming units (CFU) on ½ YTSS agar plates. The growth of algae was monitored with a CellStream flow cytometer (Merck, Darmstadt, Germany). […]

P. inhibens = experiment: Imaging flow cytometry of bacterial populations during the lag phase; assay type: cell-based, Phaeobacter inhibens; conditions: DMSP-treated cultures
Experimental: The bacterial strain Phaeobacter inhibens DSM 17395 was purchased from the German collection of microorganisms and cell cultures (DSMZ, Braunschweig, Germany) and stored at −80° C. with 20% glycerol. Routine cultivation of P. inhibens was conducted at 30° C. in artificial seawater medium (ASW) based on Goyet and Poisson (1989). […] A 96-well Tecan Infinite M Plex plate reader was used for high-resolution monitoring of bacterial growth dynamics at 30° C. […] The growth of bacteria in co-culture with algae was monitored by counting colony forming units (CFU) on ½ YTSS agar plates. The growth of algae was monitored with a CellStream flow cytometer (Merck, Darmstadt, Germany).
To reflect the natural low bacterial abundance in the oligotrophic ocean with low microalgal productivity, the current bacterial growth experiments were routinely initiated with an optical density (OD) of 0.00001. […] To determine the actual length of the lag phase, the inventors analyzed bacterial cultures using imagining flow cytometry. […]

[1] = tested on: Phaeobacter inhibens DSM 17395; experiment: Growth / lag phase shortening assay of P. inhibens pure cultures with glucose; assay type: cell-based
Experimental: ASW was adjusted to pH 8 using HCl. If not otherwise stated, the medium was further supplemented with a source of carbon (glucose, 1 mM), nitrogen (NH4Cl, 5 mM), and sulfur (Na2SO4, 33 mM), referred to as ASW+CNS. […] A 96-well Tecan Infinite M Plex plate reader was used for high-resolution monitoring of bacterial growth dynamics at 30° C. An ImageStreamX Flow Imager system (Amnis) was used to characterize bacterial populations during the lag phase (FIG. 6). The growth of bacteria in co-culture with algae was monitored by counting colony forming units (CFU) on ½ YTSS agar plates. The growth of algae was monitored with a CellStream flow cytometer (Merck, Darmstadt, Germany).
To test whether methylated compounds affect the growth of bacteria, the inventors cultivated bacterial pure cultures with glucose as main growth substrate and supplemented the medium with the well-studied methylated compound dimethylsulfoniopropionate (DMSP). DMSP that is naturally produced by microalgae and found in detectable levels in seawater, is known to be metabolized by various bacteria. […] To quantify the lag phase shortening effect, the inventors calculated the Δlag time, which is the time difference between the commence of exponential growth in control cultures compared to treated cultures (FIG. 5B).
To reflect the natural low bacterial abundance in the oligotrophic ocean with low microalgal productivity, the current bacterial growth experiments were routinely initiated with an optical density (OD) of 0.00001. Such low initial ODs challenge the detection of cell divisions that occur prior to reaching an OD of at least 0.001, which is the theoretical limit of detection. To determine the actual length of the lag phase, the inventors analyzed bacterial cultures using imagining flow cytometry.

[2] = artificial seawater medium, 1 mM glucose, micromolar DMSP

## C[S+](C)CCC(=O)[O-] [DMSP, dimethylsulfoniopropionate]
Various marine bacteria
  lag phase shortening: marked lag phase shortening
P. inhibens
  time at which transition from aggregates to single-celled bacteria is concluded: 3 h
[1]; 2 nM DMSP per 25,000 cells/mL
  amount of DMSP per cell corresponding to the minimal effective concentration: 80 amol
[1]; 2 μM DMSP, culture with TMP supplemented with nucleotides
  lag phase shortening in the presence of TMP: still elicited lag phase shortening
[1]; [2]
  growth rate: not affected
  lag time: the lag time was shortened
[1]; high salt conditions (FIG. 19A)
  lag phase shortening effect under salt stress: enhance the lag phase shortening effect
[1]; micromolar concentrations of DMSP, glucose as main growth substrate
  growth of the bacterium: stimulate the growth of the bacterium
[1]; per 25,000 cells/mL (OD 0.00001), glucose as main carbon source
  minimal DMSP concentration that triggered a significant lag phase shortening: 2 nM
[1]; temperatures that deviate from the 30° C. optimum (FIG. 19B)
  lag phase shortening effect under temperature stress: enhance the lag phase shortening effect
